Test results reported in patent US7368605B2, “Variously substituted derivatives of guanidine, and their use as medicines with anti-diabetes and/or anti-obesity activity” (Sigma-Tau Industrie Farmaceutiche Riunite S.p.A., priority 2002, dated 2008).
Like-named read-outs stand apart in the source and are kept apart here.

Legend:
[1] = test system: C57BL/KsJ db/db mice; experiment: Consumption of water and food by db/db mice; details: male db/db mice, control = 100
Excerpt: The C57BL/KsJ db/db mice used in the experiments reported here below were supplied by Jackson Lab (via Ch. River).

[2] = test system: diabetic patients; details: cited from earlier work
[3] = test system: KKAy mouse; details: oral dose of 900 mg/kg/day; cited from earlier work
[4] = test system: rat; details: oral administration; cited from earlier work
[5] = test system: C57BL/KsJ db/db mice; experiment: Serum glucose levels in db/db mice after 4 days of subcutaneous treatment; details: male db/db mice, postabsorption conditions, 8 hours after last treatment, control = 100
[6] = test system: ob/ob mouse; experiment: Reduction in hyperglycaemia in the ob/ob mouse (laboratory experiments); details: oral dose of 600 mg/kg/day
[7] = 100 mg/kg s.c. twice daily for 4 days
[8] = 25 mg/kg s.c. twice daily for 4 days

Compound	Food % (consumption, variation vs Control) [1, 7]	Water % (consumption, variation vs Control) [1, 7]	reduction of hyperglycaemia ([2]; in combination with sulphonylureas)	reduction of hyperglycaemia ([2]; monotherapy after the failure of diet and physical exercise)	reduction in hyperglycaemia [3]	LD50 [4]	Glucose % (variation vs Control) [5, 7]	reduction in hyperglycaemia [6]	Food % (consumption, variation vs Control) [1, 8]	Water % (consumption, variation vs Control) [1, 8]	Glucose % (variation vs Control) [5, 8]
CN(C)C(=N)N=C(N)N [Metformin]	119%	113%	25%	20-30%	50%	1000 mg/kg	104%	22%			
CC(C)=CCNC(=N)NCCCCN.CS(=O)(=O)O [ST2369, N-(4-aminobutyl)-N′-(γ,γ-dimethylallyl)guanidine methane sulphonate]									63%	47%	
CC(C)=CCNC(=N)NCCCCCCN.CS(=O)(=O)O [ST2370, N-(γ,γ-dimethylallyl)-N′-(6-aminohexyl)guanidine methane sulphonate]									81%	47%	69 □ %
